This is an account of results in patent publication US12600732B2, “Bifunctional compounds for degrading BTK via ubiquitin proteosome pathway” (NURIX THERAPEUTICS, INC., priority 2019, dated 2026).

The target in one series is T1, BTK (Mus musculus, UniProt P35991).
T1 construct: from tissue; host or cells: mouse blood B cells / splenocytes (CD-1 or BALB/c)
Nature of the series: In vivo degradation of BTK in mouse PD experiments with oral dosing. On the procedure:
A method of determining the pharmacodynamic profile of BTK degraders was performed by dosing either CD-1 or BALB/c mice with CTM. The CTM was prepared in a suitable formulation and was administered via oral gavage (PO) at a suitable dose level and frequency as informed by prior pharmacokinetic and tolerability studies. Following administration of CTM, BTK levels in blood or splenocytes are measured using flow cytometry or HTRF. For assessment of BTK levels via flow cytometry, either whole blood or splenocytes were first treated with ACK RBC lysis buffer to facilitate lysing of red blood cells. Remaining cells were then stained with fluorophore-conjugated antibodies against CD45, TCR beta and CD45R (B220). Cell pellets were washed with 1×PBS, fixed, and permeabilized for twenty-four hours with Foxp3/Transcription Factor Fixation/Permeabilization Kit. Cells were then stained intracellularly with unconjugated BTK antibody and detected with a fluorophore-conjugated secondary antibody. Stained cells were run on an Attune N×T Acoustic Focusing Flow Cytometer (Thermo-Fisher A29004), and data was analyzed using FlowJo (v10.5.3) and GraphPad Prism (v7.00) software. Lymphocytes were gated for B cells defined as CD45+ TCR beta−B220+ and T cells as CD45+ TCR beta+B220−. The BTK geometric mean fluorescence intensity (MFI) was calculated for B and T cells. Percent BTK degradation for each compound-treated sample was calculated using the equation described below: % Degradation=100*(Treated sample B cell BTK MFI-treated sample T cell BTK MFI)/Vehicle B cell BTK MFI-Vehicle T cell BTK MFI)
This example evaluates in vivo activity of BTK CTMs via a direct mouse PD measurement following oral dosing
Screens were completed at 90 mg/kg for six hours, and then changed to lower doses/longer time points after seeing strong BTK degradation activity with an initial set of compounds. This assay was useful in selecting compounds for in vivo efficacy experiments.

In another series the test system is TMD8 C481S cells. Nature of the series: Cell viability assay (CellTiter-Glo), TMD8 C481S cells. Particulars: for EC50: Homo sapiens, TMD8, 72 h; for EMAX (% viable cells): TMD8 C481S cells, treatment time 72 h. (In ATP-based viability assays light output follows the ATP content of the culture.)
A further series has as its system TMD8 cells. Nature of the series: Cell viability assay (CellTiter-Glo), TMD8 cells. Particulars: for EC50: Homo sapiens, TMD8, 72 h; for EMAX (% viable cells): TMD8 cells, treatment time 72 h.
The mark [1] stands for this setting: oral dose 30 mg/kg, 24 h, splenocytes, HTRF.
[2] abbreviates: oral dose 30 mg/kg, 24 h, blood, flow cytometry.
Setting [3] is: oral dose 90 mg/kg, 6 h, splenocytes, HTRF.
Where [4] appears, read: oral dose 3 mg/kg, 6 h, blood, flow cytometry.
[5] abbreviates: oral dose 1 mg/kg, 6 h, splenocytes, HTRF.

T1 sequence (P35991 whole entry): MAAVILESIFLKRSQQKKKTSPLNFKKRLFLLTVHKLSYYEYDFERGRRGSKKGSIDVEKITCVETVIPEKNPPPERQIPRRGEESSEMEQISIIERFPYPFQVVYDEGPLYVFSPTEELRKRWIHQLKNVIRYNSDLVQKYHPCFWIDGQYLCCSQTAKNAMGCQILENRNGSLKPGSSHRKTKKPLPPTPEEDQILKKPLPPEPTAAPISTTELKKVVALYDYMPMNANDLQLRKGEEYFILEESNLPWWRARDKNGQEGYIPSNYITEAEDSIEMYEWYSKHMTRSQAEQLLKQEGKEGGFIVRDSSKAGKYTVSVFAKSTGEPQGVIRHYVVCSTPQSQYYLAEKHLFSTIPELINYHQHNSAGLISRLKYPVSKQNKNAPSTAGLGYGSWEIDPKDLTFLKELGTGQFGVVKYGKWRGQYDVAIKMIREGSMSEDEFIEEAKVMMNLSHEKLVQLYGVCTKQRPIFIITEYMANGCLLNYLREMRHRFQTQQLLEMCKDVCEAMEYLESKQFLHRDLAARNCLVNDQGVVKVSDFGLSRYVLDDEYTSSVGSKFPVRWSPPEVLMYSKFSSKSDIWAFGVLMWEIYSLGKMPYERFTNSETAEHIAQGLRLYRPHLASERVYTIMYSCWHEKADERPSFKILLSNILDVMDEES

In the case of `CN1CCN([C@@H]2CCCN(c3cnc(C(N)=O)c(Nc4ccc(C5CCN(C[C@H]6CCN(c7ccc8c(c7)C(=O)N([C@@H]7CCC(=O)NC7=O)C8=O)C6)CC5)nc4)n3)C2)C1=O` [Compound 207], the “% BTK Remaining” value on BTK (setting [1]) worked out at 46%. Moreover, in the series with TMD8 C481S cells, a half-maximal response (EC50) required 0.009 nM and the “EMAX (% viable cells)” value came to 54%.
For the compound `CN1CCN([C@@H]2CCCN(c3cnc(C(N)=O)c(Nc4ccc(C5CCN(C[C@H]6CCN(c7ccc8c(=O)n(C9CCC(=O)NC9=O)ccc8c7)C6)CC5)cc4)n3)C2)C1=O` (some centres unmarked) [Compound 115], the “% BTK Remaining” value at BTK (setting [2]) came out at 30%. Further, in the series on TMD8 cells, the 50% effective concentration (EC50) (as a rule, the concentration at which the effect is half-maximal) came to 2.74 nM and the “EMAX (% viable cells)” value is 13%. Besides, in the series on TMD8 C481S cells, the EC50 was 1.93 nM and the “EMAX (% viable cells)” value came to 16%.
Turning to `CN1CCN([C@@H]2CCCN(c3cnc(C(N)=O)c(Nc4ccc(N5CCN(C[C@H]6CCN(c7ccc8c(c7)C(=O)N(C7CCC(=O)NC7=O)C8=O)C6)CC5)cc4)n3)C2)C1=O` (some centres unmarked) [Compound 42], at BTK (setting [3]), the “% BTK Remaining” value turned out to be 5%. Besides, in the series on TMD8 cells, the midpoint of the response, the EC50, lay at 0.217 nM and the “EMAX (% viable cells)” value turned out to be 40%. Also, in the series on TMD8 C481S cells, the response was half-maximal at 1.96 nM (EC50) and the “EMAX (% viable cells)” value was 57%.
`CN1CCN([C@@H]2CCCN(c3cnc(C(N)=O)c(Nc4ccc(C5CCN(CC6CN(c7ccc8c(c7)C(=O)N(C7CCC(=O)NC7=O)C8=O)C6)CC5)cc4)n3)C2)C1=O` (some centres unmarked) [Compound 54]: the “% BTK Remaining” value on BTK (setting [3]) is recorded as 1%. For the same compound, in the series on TMD8 cells, the midpoint of the response, the EC50, lay at 0.61 nM and the “EMAX (% viable cells)” value came out at 13%. In the series with TMD8 C481S cells, the half-maximal effective concentration (EC50) was 7.11 nM and the “EMAX (% viable cells)” value is 6%.
With `CN1CCN([C@@H]2CCCN(c3cnc(C(N)=O)c(Nc4ccc(N5CCN(C[C@@H]6CCN(c7ccc8c(c7)C(=O)N(C7CCC(=O)NC7=O)C8=O)C6)CC5)cc4)n3)C2)C1=O` (some centres unmarked) [Compound 59], the “% BTK Remaining” value on BTK (setting [3]) was found to be 7%. Also, in the series with TMD8 cells, the midpoint of the response, the EC50, lay at 0.15 nM and the “EMAX (% viable cells)” value is on record as 31%. In the series on TMD8 C481S cells, the EC50 stood at 2.03 nM and the “EMAX (% viable cells)” value was found to be 52%.
The corresponding values for `CN1CCN([C@@H]2CCCN(c3cnc(C(N)=O)c(Nc4ccc(N5CCN(CC6CCN(c7ccc8c(c7)C(=O)N(C7CCC(=O)NC7=O)C8=O)CC6)CC5)cc4)n3)C2)C1=O` (some centres unmarked) [Compound 49] are less than 1%, 0.61 nM, 28%, 3.86 nM and 23%.
As for `Cn1cc(Nc2nc(N3CCC[C@@H](N4CC5(CN(CC6CCN(c7ccc8c(c7)C(=O)N(C7CCC(=O)NC7=O)C8=O)CC6)C5)OC4=O)C3)cnc2C(N)=O)cn1` (stereo partly drawn) [compound 211, 5-[(3R)-3-[2-({1-[2-(2,6-dioxopiperidin-3-yl)-1,3-dioxoisoindol-5-yl]piperidin-4-yl}methyl)-6-oxo-5-oxa-2,7-diazaspiro[3.4]octan-7-yl]piperidin-1-yl]-3-[(1-methylpyrazol-4-yl)amino]pyrazine-2-carboxamide], at BTK (setting [4]), the “% BTK Remaining” value came out at 74%. Also, in the series with TMD8 cells, the EC50 came to 11.7 nM and the “EMAX (% viable cells)” value is 30%. Also, in the series with TMD8 C481S cells, the EC50 came out at 113 nM and the “EMAX (% viable cells)” value amounted to 28%.
On to `CN1CCN([C@@H]2CCCN(c3cnc(C(N)=O)c(Nc4cnn(C5CN(CC6CCN(c7ccc8c(c7)C(=O)N([C@@H]7CCC(=O)NC7=O)C8=O)CC6)C5)c4)n3)C2)C1=O` [Compound 209], for which the EC50 with TMD8 cells is 7.41 nM; with TMD8 C481S cells, 55.2 nM. The figures for the “EMAX (% viable cells)” value in the series on TMD8 cells and in the series on TMD8 C481S cells were 49% and 44%, respectively.
Take `CN1CCN([C@H]2CCCN(c3cnc(C(N)=O)c(Nc4ccc(N5CCC6(CCN(c7ccc8c(c7)C(=O)N(C7CCC(=O)NC7=O)C8=O)CC6)CC5)nc4)n3)C2)C1=O` (some centres unmarked) [Compound 80]: the “% BTK Remaining” value at BTK (oral dose 0.3 mg/kg, 24 h, blood, flow cytometry) is recorded as 88%; at BTK (oral dose 0.3 mg/kg, 24 h, splenocytes, flow cytometry), 115%; at BTK (setting [4]), 96%; at BTK (oral dose 3 mg/kg, 24 h, blood, flow cytometry) it was 77%; on BTK (oral dose 3 mg/kg, 24 h, splenocytes, flow cytometry), 111%; on BTK (oral dose 10 mg/kg, 24 h, blood, flow cytometry), 59%. Moreover, the “% BTK Remaining” value on BTK (oral dose 10 mg/kg, 24 h, splenocytes, flow cytometry) is listed as 74%; at BTK (setting [2]), 52%; at BTK (oral dose 30 mg/kg, 24 h, splenocytes, flow cytometry) it was 69%; on BTK (oral dose 90 mg/kg, 24 h, blood, flow cytometry) it was 48%; at BTK (oral dose 90 mg/kg, 24 h, splenocytes, flow cytometry), 65%. The results for the EC50 in the series with TMD8 cells and with TMD8 C481S cells were 45.2 nM and 125 nM, respectively. The “EMAX (% viable cells)” value was determined as 45% with TMD8 cells and 78% in the series on TMD8 C481S cells.
On to `CN1CCN([C@@H]2CCCN(c3cnc(C(N)=O)c(Nc4ccc(N5CCN(CC6CN(c7ccc8c(c7)C(=O)N(C7CCC(=O)NC7=O)C8=O)C6)CC5)cc4)n3)C2)C1=O` (some centres unmarked) [Compound 60], for which the “% BTK Remaining” value at BTK (setting [3]) is reported as 3%. Further, the EC50 stood at 0.97 nM in the series with TMD8 cells and 8.37 nM with TMD8 C481S cells. Moreover, the “EMAX (% viable cells)” value is reported as 20% with TMD8 cells and 26% in the series on TMD8 C481S cells.
Consider `Cn1cc(Nc2nc(N3CCC[C@@H](N4CC5(CN(C6CCN(c7ccc8c(c7)C(=O)N([C@H]7CCC(=O)NC7=O)C8=O)CC6)C5)OC4=O)C3)cnc2C(N)=O)cn1` [Compound 212], for which, on BTK (setting [4]), the “% BTK Remaining” value stood at 78%. For the same compound, the EC50 in the series with TMD8 cells amounted to 15.1 nM; in the series on TMD8 C481S cells it was 63 nM. For the same compound, the entries for the “EMAX (% viable cells)” value in the series on TMD8 cells and in the series on TMD8 C481S cells were 42% and 44%, respectively.
Consider `CN1CCN([C@@H]2CCCN(c3cnc(C(N)=O)c(Nc4ccc(C5(C)CCN(c6ccc7c(c6)C(=O)N(C6CCC(=O)NC6=O)C7=O)CC5)cc4)n3)C2)C1=O` (some centres unmarked) [Compound 58], for which, on BTK (setting [3]), the “% BTK Remaining” value came to 89%.
On to `CN1CCN([C@@H]2CCCN(c3cnc(C(N)=O)c(Nc4ccc(C5CN(CC6CCN(c7cnn(C8CCC(=O)NC8=O)c(=O)c7)CC6)C5)cc4)n3)C2)C1=O` (some centres unmarked) [Compound 118], for which the “% BTK Remaining” value at BTK (setting [1]) was 85%.
For `CN1CCN([C@H]2CCCN(c3cnc(C(N)=O)c(Nc4ccc(C5CCN(C[C@@H]6CCN(c7ccc(-c8nn(C9CCC(=O)NC9=O)c(=O)n8C)cc7)C6)CC5)cc4)n3)C2)C1=O` (some centres unmarked) [Compound 142], on BTK (setting [2]), the “% BTK Remaining” value worked out at 43%.
For `CN1CCN([C@@H]2CCCN(c3cnc(C(N)=O)c(Nc4ccc(N5CCN(CCC6CN(c7ccc8c(c7)C(=O)N(C7CCC(=O)NC7=O)C8=O)C6)CC5)cc4)n3)C2)C1=O` (some centres unmarked) [Compound 43], on BTK (setting [3]), the “% BTK Remaining” value was 4%.
Take `CN1CCN([C@@H]2CCCN(c3cnc(C(N)=O)c(Nc4cc5n(n4)CCN(C[C@H]4CCN(c6ccc7c(c6)C(=O)N(C6CCC(=O)NC6=O)C7=O)C4)C5)c3)C2)C1=O` (some centres unmarked) [Compound 214]: the “% BTK Remaining” value at BTK (setting [4]) is recorded as 100%.
In the case of `NC(=O)c1ncc(N2CCCCC2)nc1Nc1ccc(C2CCN(CC3CCN(c4ccc(OC5CCC(=O)NC5=O)cn4)CC3)CC2)cc1` (centres unmarked) [Compound 164], the “% BTK Remaining” value on BTK (setting [1]) is 29%.
Still for that read-out and setting: in the case of `CN1CCN([C@@H]2CCCN(c3cnc(C(N)=O)c(Nc4ccc(C5CN(CC6CCN(c7ccc(-c8nn(C9CCC(=O)NC9=O)c(=O)n8C)cc7)CC6)C5)cc4)n3)C2)C1=O` (some centres unmarked) [Compound 119] it was 77%.
Consider `CN1CCN([C@@H]2CCCN(c3cnc(C(N)=O)c(Nc4ccc(N5CCN(C[C@@H]6CCCN(c7ccc8c(c7)C(=O)N(C7CCC(=O)NC7=O)C8=O)C6)CC5)cc4)n3)C2)C1=O` (some centres unmarked) [Compound 46], for which, at BTK (setting [3]), the “% BTK Remaining” value was found to be 14%.
As to `Cn1c(-c2ccc(N3CCC(CN4CCC(c5ccc(Nc6nc(N7CCC[C@H](N8CCCC8=O)C7)cnc6C(N)=O)cc5)CC4)CC3)cc2)nn(C2CCC(=O)NC2=O)c1=O` (some centres unmarked) [Compound 143], the “% BTK Remaining” value at BTK (setting [2]) stood at 37%.
Regarding `CN1CCN([C@@H]2CCCN(c3cnc(C(N)=O)c(Nc4ccc(N5CCC6(CCN(Cc7ccc8c(c7)CN([C@@H]7CCC(=O)NC7=O)C8=O)CC6)CC5)cc4)n3)C2)C1=O` [Compound 210], the results for the EC50 with TMD8 cells and with TMD8 C481S cells were 5.61 nM and 5.29 nM, respectively. In addition, the entries for the “EMAX (% viable cells)” value with TMD8 cells and with TMD8 C481S cells were 32% and 40%, respectively.
On to `CN1CCN([C@H]2CCCN(c3cnc(C(N)=O)c(Nc4ccc(N5CCC6(CCCN(Cc7ccc8c(c7)C(=O)N(C7CCC(=O)NC7=O)C8=O)C6)CC5)cc4)n3)C2)C1=O` (some centres unmarked) [Compound 108], for which the “% BTK Remaining” value on BTK (setting [5]) amounted to 116%.
For the compound `CN1CCN([C@@H]2CCCN(c3cnc(C(N)=O)c(Nc4ccc(C5CN(C[C@H]6CCN(c7ccc8c(c7)C(=O)N(C7CCC(=O)NC7=O)C8=O)C6)C5)cc4)n3)C2)C1=O` (some centres unmarked) [Compound 35], the “% BTK Remaining” value at BTK (setting [5]) was 74%.
